Tests used:
Test in all cases: RelE cleavage translation initiation assay (PAGE)
[1] = system: Pae Gdm WT (RNA, riboswitch) GGUUUCAGCCGGAAGCGGGACGACCCGUUUUCCCUCUUUCAUUGCGCGGGGACGACCCUGCAGAGAGGCUGAAAAUGUAGUGGAUCUAUCUCUUGCUCGUA; settings: 30 mM K+ (KCl), 7 mM Mg2+, 70 mM NH4Cl, 50 mM HEPES-KOH pH 7.5, 37 °C, 70S ribosomes, IFs
[2] = system: Vvu add U61C (RNA, riboswitch) GCUUCAUAUAAUCCUAAUGAUAUGGUUUGGGAGUUUCUACCAAGAGCCUUAAACUCUUGACUAUGAAGUCUGUCGCUUUAUCCGAAAUUUUAUAAAGAGAAGACUCAUGUAGAAUUACUUUGACCUGCCG; settings: 30 mM K+ (KCl), 7 mM Mg2+, 70 mM NH4Cl, 50 mM HEPES-KOH pH 7.5, 37 °C, 70S ribosomes, IFs
[3] = system: Vvu add (WT) (RNA, riboswitch) GCUUCAUAUAAUCCUAAUGAUAUGGUUUGGGAGUUUCUACCAAGAGCCUUAAACUCUUGAUUAUGAAGUCUGUCGCUUUAUCCGAAAUUUUAUAAAGAGAAGACUCAUGUAGAAUUACUUUGACCUGCCG; settings: 30 mM K+ (KCl), 7 mM Mg2+, 70 mM NH4Cl; 50 mM HEPES-KOH pH 7.5, 37 °C, 70S ribosomes, IFs; apparent
[4] = system: Pae Gdm OFF (RNA, riboswitch) GGUUUCAGCCGGAAGCGGGAAAACCCGUUUUCCCUCUUUCAUUGCGCGGGGACGACCCUGCAGAGAGGCUGAAAAUGUAGUGGAUCUAUCUCUUGCUCGUA; settings: 30 mM K+ (KCl), 7 mM Mg2+, 70 mM NH4Cl; 50 mM HEPES-KOH pH 7.5, 37 °C, 70S ribosomes, IFs; no response up to 25 mM guanidine

Q: NC(N)=O was tested. Which binding ([1]; no modulation at 50 mM urea) did it give?
A: The binding was “no”.

Q: For Nc1ncnc2[nH]cnc12, which binding ([2]; no response up to 500 μM adenine) is on record?
A: The binding was “no”.

Q: And the K1/2 [3]?
A: The K1/2 was 1.4 ± 0.7 µM.

Q: How did the binding [4] turn out when N=C(N)N was run?
A: Its binding is “no”.

Q: What about the K1/2 ([1]; apparent, Hill 1.5 ± 0.2) of the same molecule?
A: The K1/2 was 2.2 ± 0.2 mM.

Q: Which K1/2 ([2]; apparent) does the source give for Nc1nc2[nH]cnc2c(=O)[nH]1 here?
A: The K1/2 was 87 ± 3 nM.

— paper PMC9561414 (2022)
